Results on 1 compound are retold here after PMC5218480 (PLoS ONE, 2017).

The subject of the assay is MV-4-11 cells. Nature of the assay: Gene expression microarray analysis (Affymetrix PrimeView) and GSEA. The class given is cell-based, human. Details: RFU PODN (11730768_x_at) / Fold change /veh PODN (11730768_x_at) / RFU LINC00158 (11744669_a_at) / Fold change /veh LINC00158 (11744669_a_at) / RFU DUSP10 (11751237_a_at) / Fold change /veh DUSP10 (11751237_a_at) / RFU ID3 (11757404_x_at) / Fold change /veh ID3 (11757404_x_at) / RFU PLEKHG5 (11737974_s_at) / Fold change /veh PLEKHG5 (11737974_s_at) / RFU LRRC4B (11730491_at) / Fold change /veh LRRC4B (11730491_at) / RFU GIMAP4 (11747438_a_at) / Fold change /veh GIMAP4 (11747438_a_at) / RFU KRT8 (11758183_x_at) / Fold change /veh KRT8 (11758183_x_at) / RFU CNN1 (11734310_a_at) / Fold change /veh CNN1 (11734310_a_at) / RFU VPS37D (11726825_at) / Fold change /veh VPS37D (11726825_at) / RFU C10orf10 (11716522_x_at) / Fold change /veh C10orf10 (11716522_x_at) / RFU KIR2DL2 /// KIR2DL4 /// KIR2DL5A /// KIR2DL5B /// KIR2DS1 /// KIR2DS2 /// KIR2DS3 /// KIR2DS4 /// KIR3DL3 /// KIR3DL3 /// KIR3DS1 (11738374_at) / Fold change /veh KIR2DL2 /// KIR2DL4 /// KIR2DL5A /// KIR2DL5B /// KIR2DS1 /// KIR2DS2 /// KIR2DS3 /// KIR2DS4 /// KIR3DL3 /// KIR3DL3 /// KIR3DS1 (11738374_at) / RFU C1QL1 (11718748_at) / Fold change /veh C1QL1 (11718748_at) / RFU TMPRSS4 (11747572_a_at) / Fold change /veh TMPRSS4 (11747572_a_at) / RFU HAMP (11756126_x_at) / Fold change /veh HAMP (11756126_x_at) / RFU RNFT2 (11725882_a_at) / Fold change /veh RNFT2 (11725882_a_at) / RFU NR4A2 (11747474_a_at) / Fold change /veh NR4A2 (11747474_a_at) / RFU ABCC12 (11746883_a_at) / Fold change /veh ABCC12 (11746883_a_at) / RFU TMEM136 (11760407_x_at) / Fold change /veh TMEM136 (11760407_x_at) / RFU CLDN22 /// WWC2 (11732394_at) / Fold change /veh CLDN22 /// WWC2 (11732394_at) / RFU HLA-DPB1 (11760878_x_at) / Fold change /veh HLA-DPB1 (11760878_x_at) / RFU SPINT1 (11716480_a_at) / Fold change /veh SPINT1 (11716480_a_at) / RFU GAP43 (11754022_s_at) / Fold change /veh GAP43 (11754022_s_at) / RFU A4GNT (11735810_at) / Fold change /veh A4GNT (11735810_at) / RFU PRB3 (11715151_x_at) / Fold change /veh PRB3 (11715151_x_at) / RFU TUBB4B (11761932_at) / Fold change /veh TUBB4B (11761932_at) / RFU CAPN14 (11732068_a_at) / Fold change /veh CAPN14 (11732068_a_at) / RFU TMCC2 (11721928_a_at) / Fold change /veh TMCC2 (11721928_a_at) / RFU IRGQ (11745062_a_at) / Fold change /veh IRGQ (11745062_a_at) / RFU FAM174B (11720279_a_at) / Fold change /veh FAM174B (11720279_a_at) / RFU TMPRSS4 (11748680_a_at) / Fold change /veh TMPRSS4 (11748680_a_at) / RFU FAM212B (11763350_a_at) / Fold change /veh FAM212B (11763350_a_at) / RFU PLEKHG5 (11743358_a_at) / Fold change /veh PLEKHG5 (11743358_a_at) / RFU ZSCAN30 (11745921_a_at) / Fold change /veh ZSCAN30 (11745921_a_at) / RFU CMKLR1 (11741424_a_at) / Fold change /veh CMKLR1 (11741424_a_at) / RFU LOC101060620 /// MAPK8IP1 (11723275_at) / Fold change /veh LOC101060620 /// MAPK8IP1 (11723275_at) / RFU SPTSSB (11747773_x_at) / Fold change /veh SPTSSB (11747773_x_at) / RFU PRSS12 (11739890_at) / Fold change /veh PRSS12 (11739890_at) / RFU BIN1 (11741810_x_at) / Fold change /veh BIN1 (11741810_x_at) / RFU WNT11 (11732464_a_at) / Fold change /veh WNT11 (11732464_a_at) / RFU C10orf10 (11716521_a_at) / Fold change /veh C10orf10 (11716521_a_at) / RFU C5orf56 (11738089_at) / Fold change /veh C5orf56 (11738089_at) / RFU CYB561 (11721691_x_at) / Fold change /veh CYB561 (11721691_x_at) / RFU ANKRD19P (11752326_a_at) / Fold change /veh ANKRD19P (11752326_a_at) / RFU OR2T12 /// OR2T33 /// OR2T8 (11738714_s_at) / Fold change /veh OR2T12 /// OR2T33 /// OR2T8 (11738714_s_at) / RFU VCAN (11748164_a_at) / Fold change /veh VCAN (11748164_a_at) / RFU JSRP1 (11732532_at) / Fold change /veh JSRP1 (11732532_at) / RFU KRTAP10-11 (11738290_x_at) / Fold change /veh KRTAP10-11 (11738290_x_at) / RFU MYO3A (11730013_a_at) / Fold change /veh MYO3A (11730013_a_at) / RFU EBF3 (11725865_a_at) / Fold change /veh EBF3 (11725865_a_at) / RFU CAMK2N1 (11719241_x_at) / Fold change /veh CAMK2N1 (11719241_x_at) / RFU C5orf56 (11738088_a_at) / Fold change /veh C5orf56 (11738088_a_at) / RFU OLFML3 (11715873_a_at) / Fold change /veh OLFML3 (11715873_a_at) / RFU LOC100653217 /// NTM (11731650_a_at) / Fold change /veh LOC100653217 /// NTM (11731650_a_at) / RFU MAPK11 (11762145_a_at) / Fold change /veh MAPK11 (11762145_a_at) / RFU FIZ1 (11724087_x_at) / Fold change /veh FIZ1 (11724087_x_at) / RFU OASL (11726364_x_at) / Fold change /veh OASL (11726364_x_at) / RFU SOX15 (11748057_x_at) / Fold change /veh SOX15 (11748057_x_at) / RFU CD79A (11719716_a_at) / Fold change /veh CD79A (11719716_a_at) / RFU HIST1H1D (11736915_at) / Fold change /veh HIST1H1D (11736915_at) / RFU CASKIN2 (11723855_a_at) / Fold change /veh CASKIN2 (11723855_a_at) / RFU LOC730098 (11760151_x_at) / Fold change /veh LOC730098 (11760151_x_at) / RFU OR4N2 (11742367_at) / Fold change /veh OR4N2 (11742367_at) / RFU PRRT2 (11749266_a_at) / Fold change /veh PRRT2 (11749266_a_at) / RFU SNX32 (11753110_a_at) / Fold change /veh SNX32 (11753110_a_at) / RFU CDHR5 (11726645_a_at) / Fold change /veh CDHR5 (11726645_a_at) / RFU RCAN1 (11760418_a_at) / Fold change /veh RCAN1 (11760418_a_at) / RFU FAM167A (11723789_a_at) / Fold change /veh FAM167A (11723789_a_at) / RFU FAM26E (11764081_at) / Fold change /veh FAM26E (11764081_at) / RFU ISYNA1 (11749810_s_at) / Fold change /veh ISYNA1 (11749810_s_at) / RFU ACY1 (11761880_at) / Fold change /veh ACY1 (11761880_at) / RFU 11764098_at / Fold change /veh 11764098_at / RFU SAMD14 (11745864_x_at) / Fold change /veh SAMD14 (11745864_x_at) / RFU NPB (11741838_a_at) / Fold change /veh NPB (11741838_a_at) / RFU TMPRSS6 (11731388_a_at) / Fold change /veh TMPRSS6 (11731388_a_at) / RFU KRTAP10-2 (11738614_at) / Fold change /veh KRTAP10-2 (11738614_at) / RFU ARHGAP8 /// PRR5-ARHGAP8 (11727945_x_at) / Fold change /veh ARHGAP8 /// PRR5-ARHGAP8 (11727945_x_at) / RFU KRTAP5-7 /// NADSYN1 (11734609_at) / Fold change /veh KRTAP5-7 /// NADSYN1 (11734609_at) / RFU RASL12 (11751679_a_at) / Fold change /veh RASL12 (11751679_a_at) / RFU CDKN2B (11736163_a_at) / Fold change /veh CDKN2B (11736163_a_at) / RFU PRF1 (11729649_at) / Fold change /veh PRF1 (11729649_at) / RFU, ZNF638 /// ZNF638-IT1 / Fold change vs veh, ZNF638 /// ZNF638-IT1 / RFU, PANK3 / Fold change vs veh, PANK3 / RFU, SH3YL1 / Fold change vs veh, SH3YL1 / RFU, ZEB2 / Fold change vs veh, ZEB2 / RFU, NRIP1 / Fold change vs veh, NRIP1 / RFU, PTTG1IP / Fold change vs veh, PTTG1IP / RFU, CAPN2 / Fold change vs veh, CAPN2 / RFU, MED14 / Fold change vs veh, MED14 / RFU, SNORA58 / Fold change vs veh, SNORA58 / RFU, C1orf63 / Fold change vs veh, C1orf63 / RFU, LRRFIP1 / Fold change vs veh, LRRFIP1 / RFU, NDUFAF7 / Fold change vs veh, NDUFAF7 / RFU, SLC12A2 / Fold change vs veh, SLC12A2 / RFU, IBTK / Fold change vs veh, IBTK / RFU, ESF1 / Fold change vs veh, ESF1 / Fold change vs veh, TMEM50B / RFU, TAOK1 / Fold change vs veh, TAOK1 / RFU, ACBD3 / Fold change vs veh, ACBD3 / RFU, TMA16 / Fold change vs veh, TMA16 / RFU, RWDD3 / Fold change vs veh, RWDD3 / RFU, BCAT1 / Fold change vs veh, BCAT1 / RFU, EDEM3 / Fold change vs veh, EDEM3 / RFU, TMEM33 / Fold change vs veh, TMEM33 / RFU, WDR75 / Fold change vs veh, WDR75 / RFU, AHCTF1 / Fold change vs veh, AHCTF1 / RFU, TFRC / Fold change vs veh, TFRC / RFU, ZDHHC17 / Fold change vs veh, ZDHHC17 / RFU, NOM1 / Fold change vs veh, NOM1 / RFU, ARL8B / Fold change vs veh, ARL8B / RFU, ZBTB11 / Fold change vs veh, ZBTB11 / RFU, TAMM41 / Fold change vs veh, TAMM41 / RFU, KIAA1704 /// LOC100996395 / Fold change vs veh, KIAA1704 /// LOC100996395 / RFU, ING1 / Fold change vs veh, ING1 / RFU, TRMT61B / Fold change vs veh, TRMT61B / RFU, FUBP3 / Fold change vs veh, FUBP3 / RFU, TP53 / Fold change vs veh, TP53 / RFU, TNKS2 / Fold change vs veh, TNKS2 / RFU, ZFP14 / Fold change vs veh, ZFP14 / RFU, ACTR2 / Fold change vs veh, ACTR2 / RFU, PPP3R1 / Fold change vs veh, PPP3R1 / RFU, PIK3R1 / Fold change vs veh, PIK3R1 / RFU, HNRNPA1 / Fold change vs veh, HNRNPA1 / RFU, RNF170 / Fold change vs veh, RNF170 / RFU, ZNF28 / Fold change vs veh, ZNF28 / RFU, RNGTT / Fold change vs veh, RNGTT / RFU, OGT / Fold change vs veh, OGT / RFU, BRD1 / Fold change vs veh, BRD1 / RFU, MARS / Fold change vs veh, MARS / RFU, ZNF655 / Fold change vs veh, ZNF655 / RFU, FAHD1 / Fold change vs veh, FAHD1 / RFU, BDP1 / Fold change vs veh, BDP1 / RFU, LRRCC1 / Fold change vs veh, LRRCC1 / RFU, ARID1A / Fold change vs veh, ARID1A / RFU, ZNF146 / Fold change vs veh, ZNF146 / RFU, ZNF330 / Fold change vs veh, ZNF330 / RFU, GPN3 / Fold change vs veh, GPN3 / RFU, C9orf123 / Fold change vs veh, C9orf123 / RFU, N4BP2L2 / Fold change vs veh, N4BP2L2 / RFU, ARFIP1 / Fold change vs veh, ARFIP1 / RFU, FAM179B / Fold change vs veh, FAM179B / RFU, BCL10 / Fold change vs veh, BCL10 / RFU, UHRF1BP1L / Fold change vs veh, UHRF1BP1L / RFU, BET1 / Fold change vs veh, BET1 / RFU, CNOT2 / Fold change vs veh, CNOT2 / RFU, ZNF268 / Fold change vs veh, ZNF268 / Fold change vs veh, ZNF507 / RFU, DGCR2 / Fold change vs veh, DGCR2 / RFU, WDSUB1 / Fold change vs veh, WDSUB1 / Fold change vs veh, HSP90B1 /// MIR3652 / RFU, ADSS / Fold change vs veh, ADSS / RFU, GK / Fold change vs veh, GK / RFU, ZNF148 / Fold change vs veh, ZNF148 / RFU, TAF9 / Fold change vs veh, TAF9 / RFU, SLC1A5 / Fold change vs veh, SLC1A5 / RFU, SLMO2 / Fold change vs veh, SLMO2 / RFU, ABCC4 / Fold change vs veh, ABCC4 / RFU, LOC101060439 /// RAP1B / Fold change vs veh, LOC101060439 /// RAP1B / RFU, RFX7 / Fold change vs veh, RFX7 / RFU, GTPBP10 / Fold change vs veh, GTPBP10 / RFU, CNEP1R1 / Fold change vs veh, CNEP1R1 / RFU, BIVM-ERCC5 /// ERCC5 / Fold change vs veh, BIVM-ERCC5 /// ERCC5 / RFU, ILF3 / Fold change vs veh, ILF3 / RFU 11762660_at / Fold change /veh 11762660_at / RFU VCAN (11757783_s_at) / Fold change /veh VCAN (11757783_s_at) / RFU DDX43 (11728927_at) / Fold change /veh DDX43 (11728927_at) / RFU KRT8 (11758188_x_at) / Fold change /veh KRT8 (11758188_x_at) / RFU NKD1 (11759106_at) / Fold change /veh NKD1 (11759106_at) / RFU SRD5A1 (11742802_a_at) / Fold change /veh SRD5A1 (11742802_a_at) / RFU TPSAB1 /// TPSB2 (11721975_s_at) / Fold change /veh TPSAB1 /// TPSB2 (11721975_s_at) / RFU GSTM3 (11746129_a_at) / Fold change /veh GSTM3 (11746129_a_at) / RFU IL23R (11737362_x_at) / Fold change /veh IL23R (11737362_x_at) / RFU TMEM51 (11727254_a_at) / Fold change /veh TMEM51 (11727254_a_at) / RFU PIWIL2 (11732686_x_at) / Fold change /veh PIWIL2 (11732686_x_at) / RFU ORM1 (11744905_x_at) / Fold change /veh ORM1 (11744905_x_at) / RFU CCDC152 (11743942_at) / Fold change /veh CCDC152 (11743942_at) / RFU ECM1 (11717891_a_at) / Fold change /veh ECM1 (11717891_a_at) / RFU IL23R (11748794_a_at) / Fold change /veh IL23R (11748794_a_at) / RFU TNFAIP8L3 (11732012_x_at) / Fold change /veh TNFAIP8L3 (11732012_x_at) / RFU MBOAT4 (11741988_at) / Fold change /veh MBOAT4 (11741988_at) / RFU 11764193_at / Fold change /veh 11764193_at / RFU TMEM53 (11763286_at) / Fold change /veh TMEM53 (11763286_at) / RFU MAGEB2 (11727129_at) / Fold change /veh MAGEB2 (11727129_at) / RFU TMEM200A (11744735_a_at) / Fold change /veh TMEM200A (11744735_a_at) / RFU CCDC152 (11751479_a_at) / Fold change /veh CCDC152 (11751479_a_at) / RFU FAM211A (11726209_a_at) / Fold change /veh FAM211A (11726209_a_at) / RFU RGS16 (11746705_a_at) / Fold change /veh RGS16 (11746705_a_at) / RFU VCAN (11755009_s_at) / Fold change /veh VCAN (11755009_s_at) / RFU RHOB (11743442_s_at) / Fold change /veh RHOB (11743442_s_at) / RFU RGS16 (11720943_a_at) / Fold change /veh RGS16 (11720943_a_at) / RFU RGS16 (11720944_at) / Fold change /veh RGS16 (11720944_at) / RFU, VPS4B / Fold change vs veh, VPS4B / RFU, CREB1 / Fold change vs veh, CREB1 / RFU, DNAJC13 / Fold change vs veh, DNAJC13 / RFU, GNAQ / Fold change vs veh, GNAQ / RFU, CDK5R1 / Fold change vs veh, CDK5R1 / RFU, ZRANB3 / Fold change vs veh, ZRANB3 / RFU, CUL4A / Fold change vs veh, CUL4A / RFU, CCNY / Fold change vs veh, CCNY / RFU, UFL1 / Fold change vs veh, UFL1 / RFU, COG3 / Fold change vs veh, COG3 / RFU, DIAPH2 / Fold change vs veh, DIAPH2 / RFU, SKA2 / Fold change vs veh, SKA2 / RFU, AFF3 / Fold change vs veh, AFF3 / RFU, LMF1 / Fold change vs veh, LMF1 / RFU, IPO11 / Fold change vs veh, IPO11 / RFU, DFFB / Fold change vs veh, DFFB / RFU, FOXP1 / Fold change vs veh, FOXP1 / RFU, CARD8 / Fold change vs veh, CARD8 / RFU, STRN3 / Fold change vs veh, STRN3 / RFU, ADK / Fold change vs veh, ADK / RFU, RASSF2 / Fold change vs veh, RASSF2 / RFU, WIPF1 / Fold change vs veh, WIPF1 / RFU, LARP1B / Fold change vs veh, LARP1B / RFU, RASA1 / Fold change vs veh, RASA1 / RFU, RB1 / Fold change vs veh, RB1 / RFU, PPFIA1 / Fold change vs veh, PPFIA1 / RFU, MAT2A / Fold change vs veh, MAT2A / RFU, CCT5 / Fold change vs veh, CCT5 / RFU, WDR92 / Fold change vs veh, WDR92 / RFU, CUX1 / Fold change vs veh, CUX1 / RFU, TTC7A / Fold change vs veh, TTC7A / RFU, TMEM135 / Fold change vs veh, TMEM135 / RFU, DEPTOR / Fold change vs veh, DEPTOR / RFU, CPM / Fold change vs veh, CPM / RFU, DNAJB6 / Fold change vs veh, DNAJB6 / RFU, CACNA2D3 / Fold change vs veh, CACNA2D3 / RFU, DTX4 / Fold change vs veh, DTX4 / RFU, TFCP2 / Fold change vs veh, TFCP2 / RFU, GMCL1 /// GMCL1P1 / Fold change vs veh, GMCL1 /// GMCL1P1 / RFU, AEBP2 / Fold change vs veh, AEBP2 / RFU, SNHG1 /// SNORD22 /// SNORD25 /// SNORD26 /// SNORD27 /// SNORD28 /// SNORD29 /// SNORD31 / Fold change vs veh, SNHG1 /// SNORD22 /// SNORD25 /// SNORD26 /// SNORD27 /// SNORD28 /// SNORD29 /// SNORD31 / Fold change (Aza/veh), C12orf56 (ProbeSet 11735607_a_at) / Fold change (ACY-1035/veh), C12orf56 (ProbeSet 11735607_a_at) / Fold change (Aza/veh), FGFR1OP (ProbeSet 11751329_s_at) / Fold change (ACY-1035/veh), FGFR1OP (ProbeSet 11751329_s_at) / Fold change (Aza/veh), VPS36 (ProbeSet 11739960_a_at) / Fold change (ACY-1035/veh), VPS36 (ProbeSet 11739960_a_at) / RFU SYPL1 (11715823_x_at) / Fold change /veh SYPL1 (11715823_x_at) / RFU IGFBP7 (11715501_s_at) / Fold change /veh IGFBP7 (11715501_s_at) / RFU REEP3 (11722064_at) / Fold change /veh REEP3 (11722064_at) / RFU IGLL1 (11728026_x_at) / Fold change /veh IGLL1 (11728026_x_at): dose or concentration left out as unconfirmed. The note with it: MV-4-11 cells, 48 hours.

On to `Nc1ccc(-c2cccs2)cc1NC(=O)c1ccc2c(c1)cc(C1CC1)n2CCN1CCOCC1` [ACY-1035], for which the “RFU KRTAP5-7 /// NADSYN1 (11734609_at)” value is listed as 11.39 RFU.
